Experimental data taken from patent US20060199211A1, “Fluorous-based microarrays” (priority 2005, published 2006).

Legend:
[1] = target: T1, lectin from Arachis hypogaea (peanut, FITC-PNA) (Arachis hypogaea, UniProt P02872); assay: Fluorous carbohydrate microarray screened with FITC-labeled peanut lectin (fluorescence scan at 488 nm); type: binding; conditions: carbohydrates 4-11 spotted (2 mM in 80% methanol/water) on fluorinated glass slide; FITC-PNA in PBS buffer (0.5 M), 30 min
T1 construct: purchased EY Laboratories, San Mateo, Calif
T1 sequence (P02872 24-273): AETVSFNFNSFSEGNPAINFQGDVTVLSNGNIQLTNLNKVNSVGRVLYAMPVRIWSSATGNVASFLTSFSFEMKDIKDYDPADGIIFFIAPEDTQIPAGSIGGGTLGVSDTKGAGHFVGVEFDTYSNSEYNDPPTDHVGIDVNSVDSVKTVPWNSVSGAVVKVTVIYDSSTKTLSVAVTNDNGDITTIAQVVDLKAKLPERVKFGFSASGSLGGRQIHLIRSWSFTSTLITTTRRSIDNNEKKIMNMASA
Experimental: (§1) With the fluorous-tagged carbohydrates in hand, the ability of the single C8F17 tail to anchor these mono- and disaccharides to a glass slide surface even after repeated washes was examined. The fluorous-tagged carbohydrates 4-11 were dissolved in 80% methanol/water and were spotted onto fluoroalkylsilane-derivatized glass slides employing a standard robot used for DNA arraying. The slides then were incubated for 30 minutes with the commercially available FITC (fluorescein isothiocyanate)-labeled lectins from Triticum vulgaris (wheat germ, FITC-WGA) in phosphate buffered saline (PBS buffer) (0.25 M) and Arachis hypogaea (peanut, FITC-PNA) in PBS buffer (0.5 M) and rinsed repeatedly with the assay buffer followed by distilled water. After drying, the slide was scanned with a standard fluorescent slide scanner at 488 nm to reveal the carbohydrate-binding specificities of these two lectins. As expected the wheat germ lectin WGA bound only to the fluorous-tagged N-acetylglucosamine (5). In contrast, the peanut lectin PNA bound to both galactose (7) and lactose (10) in the array experiment. This lectin is known to bind to galactose both alone and in the context of the lactose disaccharide. […]

[2] = tested on: lectin from Triticum vulgaris (wheat germ, FITC-WGA); assay: Fluorous carbohydrate microarray screened with FITC-labeled wheat germ lectin (fluorescence scan at 488 nm); type: binding; conditions: carbohydrates 4-11 spotted (2 mM in 80% methanol/water) on fluorinated glass slide; FITC-WGA in PBS buffer (0.25 M), 30 min; WGA bound only to this one
Experimental: as §1

For `OC[C@H]1O[C@@H](O[C@H]2[C@H](O)[C@@H](O)[C@H](OCCCCOCCCC(F)(F)C(F)(F)C(F)(F)C(F)(F)C(F)(F)C(F)(F)C(F)(F)C(F)(F)F)O[C@@H]2CO)[C@H](O)[C@@H](O)[C@H]1O` [Compound 10], the “binding of peanut lectin PNA to arrayed fluorous-tagged carbohydrate” value [1] was “bound”.
For `CC(=O)N[C@H]1[C@H](OCCCCOCCCC(F)(F)C(F)(F)C(F)(F)C(F)(F)C(F)(F)C(F)(F)C(F)(F)C(F)(F)F)O[C@H](CO)[C@@H](O)[C@@H]1O` [Compound 5, 3-(perfluorooctyl)propanyloxybutanyl-2-deoxy-2-acylamino-β-D-glucopyranoside], the “binding of wheat germ lectin WGA to arrayed fluorous-tagged carbohydrate” value [2] was “bound”.
`OC[C@H]1O[C@@H](OCCCCOCCCC(F)(F)C(F)(F)C(F)(F)C(F)(F)C(F)(F)C(F)(F)C(F)(F)C(F)(F)F)[C@H](O)[C@@H](O)[C@H]1O` [Compound 7] was tested, and the “binding of peanut lectin PNA to arrayed fluorous-tagged carbohydrate” value [1] was “bound”.
